The values below are quoted from earlier work in US20070287647A1, “Nail Polish Remover” (priority 2006, published 2007).

The conditions of this data set: in vapor.

Consider `CC#N` [acetonitrile], for which the inhalation toxicity level result is “about 60 ppm”.
